Laboratory results as given in US10611740B2, “Aryl dihydro-2H-benzo[b][1,4]oxazine sulfonamide and related compounds for use as agonists of RORγ and the treatment of disease” (Lycera Corporation, priority 2015, dated 2020).

Experiments:
RORγ-LBD = target: T1, RORγ-LBD (Homo sapiens, UniProt P51449); assay: RORγ-Ligand Binding Domain (LBD) TR-FRET Assay; assay type: biochemical;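 on TR-FRET Assay Max Response: 665/615 nm ratio relative to signal without ursolic acid or compound set at 100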
T1 construct: made in house; host or cells: SF9 cells (baculovirus)
T1 sequence (P51449 269-508 limits assumed): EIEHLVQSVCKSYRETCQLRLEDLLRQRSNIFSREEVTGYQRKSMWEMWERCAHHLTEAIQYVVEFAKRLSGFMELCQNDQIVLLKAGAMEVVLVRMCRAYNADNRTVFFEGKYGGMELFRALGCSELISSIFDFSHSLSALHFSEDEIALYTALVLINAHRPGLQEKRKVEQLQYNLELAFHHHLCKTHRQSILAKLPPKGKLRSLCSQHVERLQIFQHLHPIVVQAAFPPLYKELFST
Method in brief: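 This TR-FRET coactivator assay pairs baculovirus-expressed His-RORγ-LBD (~3 nM final) with biotin-SRC1 LXXLL peptide at 200 nM final in pH 7.0 Tris/KCl/EDTA/DTT/BSA buffer.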

Gal4-RORγ-LBD = target: T2, Gal4-RORγ-LBD (Homo sapiens, UniProt P51449); assay: Gal4-RORγ Luciferase Reporter Assay in HEK-293T Cells; assay type: cell-based; settings: HEK-293 cells, luciferase reporter, with 2 μM ursolic acid
T2 construct: expressed in transfected cells; host or cells: HEK-293 cells (pcDNA3.1neo plasmid)
T2 sequence (P51449 269-508 limits assumed): T1 sequence (P51449 269-508 limits assumed)
Method in brief: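 Luminescence read-out (One-Glo, 10 min RT) after overnight compound exposure at 37 °C in HEK-293 cells carrying Gal4-RORγ-LBD plus a Gal4-luciferase reporter, in the presence of 2 μM ursolic acid. Max Response is the upper plateau from a 4-parameter logistic fit, normalized to untreated signal = 100.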

Structure (SMILES) | EC50 (RORγ-LBD) [nM] | TR-FRET Assay Max Response (RORγ-LBD) | EC50 (Gal4-RORγ-LBD) [nM] | Gal4-RORγ Assay Max Response (Gal4-RORγ-LBD)
COc1ccc(-c2ccc3c(c2)N(S(=O)(=O)c2cccc(C(F)(F)F)c2)C[C@H](CCC(=O)O)O3)cc1 [Compound 2U, (S)-3-(6-(4-methoxyphenyl)-4-((3-(trifluoromethyl)phenyl)-sulfonyl)-3,4-dihydro-2H-benzo[b][1,4]oxazin-2-yl)propanoic acid] | < 500 | *** (The symbol “***” indicates a value in the range of greater than 150 to 200) | 500 to 5000 | * (The symbol “*” indicates a value in the range of 25 to 90)
COc1cncc(-c2ccc3c(c2)N(S(=O)(=O)c2cccc(C(F)(F)F)c2)C[C@H](CCC(=O)O)O3)c1 [Compound 2V, (S)-3-(6-(5-methoxypyridin-3-yl)-4-((3-(trifluoromethyl)-phenyl)sulfonyl)-3,4-dihydro-2H-benzo[b][1,4]oxazin-2-yl)propanoic acid] | < 500 | *** (The symbol “***” indicates a value in the range of greater than 150 to 200) | < 500 | ** (The symbol “**” indicates a value in the range of greater than 90 to 150)
O=C(O)CC[C@H]1CN(S(=O)(=O)c2cccc(C(F)(F)F)c2)c2cc(-c3ccc(F)cc3Cl)ccc2O1 [Compound 2W, (S)-3-(6-(2-chloro-4-fluorophenyl)-4-((3-(trifluoromethyl)phenyl)-sulfonyl)-3,4-dihydro-2H-benzo[b][1,4]oxazin-2-yl)propanoic acid] | < 500 | *** (The symbol “***” indicates a value in the range of greater than 150 to 200) | 500 to 5000 | ** (The symbol “**” indicates a value in the range of greater than 90 to 150)
Cc1ccc(-c2ccc3c(c2)N(S(=O)(=O)c2cccc(C(F)(F)F)c2)C[C@H](CCC(=O)O)O3)cc1 [Compound 2X, (S)-3-(6-(p-tolyl)-4-((3-(trifluoromethyl)phenyl)-sulfonyl)-3,4-dihydro-2H-benzo[b][1,4]oxazin-2-yl)propanoic acid] | < 500 | **** (The symbol “****” indicates a value greater than 200) | < 500 | ** (The symbol “**” indicates a value in the range of greater than 90 to 150)
CC(C)c1cccc(-c2ccc3c(c2)N(S(=O)(=O)c2cccc(C(F)(F)F)c2)C[C@H](CCC(=O)O)O3)c1 [Compound 2Y, (S)-3-(6-(3-isopropylphenyl)-4-((3-(trifluoromethyl)phenyl)-sulfonyl)-3,4-dihydro-2H-benzo[b][1,4]oxazin-2-yl)propanoic acid] | < 500 | *** (The symbol “***” indicates a value in the range of greater than 150 to 200) | < 500 | ** (The symbol “**” indicates a value in the range of greater than 90 to 150)
CC(C)c1ccc(-c2ccc3c(c2)N(S(=O)(=O)c2cccc(C(F)(F)F)c2)C[C@H](CCC(=O)O)O3)cc1 [Compound 2Z, (S)-3-(6-(4-isopropylphenyl)-4-((3-(trifluoromethyl)phenyl)-sulfonyl)-3,4-dihydro-2H-benzo[b][1,4]oxazin-2-yl)propanoic acid] | < 500 | ** (The symbol “**” indicates a value in the range of greater than 90 to 150) | > 10000 | –
O=C(O)CC[C@H]1CN(S(=O)(=O)c2cccc(C(F)(F)F)c2)c2cc(-c3cc(C(F)(F)F)ccn3)ccc2O1 [Compound 3, (S)-3-(4-((3-(trifluoromethyl)phenyl)sulfonyl)-6-(4-(trifluoromethyl)pyridin-2-yl)-3,4-dihydro-2H-benzo[b][1,4]oxazin-2-yl)propanoic acid] | < 500 | *** (The symbol “***” indicates a value in the range of greater than 150 to 200) | 500 to 5000 | *** (The symbol “***” indicates a value in the range of greater than 150 to 200)
O=C(O)CC[C@H]1CN(S(=O)(=O)c2cccc(C(F)(F)F)c2)c2cc(-c3cccc(C(F)(F)F)n3)ccc2O1 [Compound 4A, (S)-3-(4-((3-(trifluoromethyl)-phenyl)sulfonyl)-6-(6-(trifluoromethyl)pyridin-2-yl)-3,4-dihydro-2H-benzo[b][1,4]oxazin-2-yl)propanoic acid] | < 500 | *** (The symbol “***” indicates a value in the range of greater than 150 to 200) | < 500 | *** (The symbol “***” indicates a value in the range of greater than 150 to 200)
CCOc1cccc(-c2ccc3c(c2)N(S(=O)(=O)c2cccc(C(F)(F)F)c2)C[C@H](CCC(=O)O)O3)c1F [Compound 4AA, (S)-3-(6-(3-ethoxy-2-fluorophenyl)-4-((3-(trifluoromethyl)phenyl)sulfonyl)-3,4-dihydro-2H-benzo[b][1,4]oxazin-2-yl)propanoic acid] | < 500 | **** (The symbol “****” indicates a value greater than 200) | < 500 | ** (The symbol “**” indicates a value in the range of greater than 90 to 150)
O=C(O)CC[C@H]1CN(S(=O)(=O)c2cccc(C(F)(F)F)c2)c2cc(-c3cccc(OCCO)c3)ccc2O1 [Compound 4AB, (S)-3-(6-(3-(2-hydroxyethoxy)-phenyl)-4-((3-(trifluoromethyl)phenyl)-sulfonyl)-3,4-dihydro-2H-benzo[b][1,4]oxazin-2-yl)propanoic acid] | > 10000 | – | > 10000 | –
CC(C)n1cc(-c2ccc3c(c2)N(S(=O)(=O)c2cccc(C(F)(F)F)c2)C[C@H](CCC(=O)O)O3)cn1 [Compound 4AC, (S)-3-(6-(1-isopropyl-1H-pyrazol-4-yl)-4-((3-(trifluoromethyl)phenyl)sulfonyl)-3,4-dihydro-2H-benzo[b][1,4]oxazin-2-yl)propanoic acid] | < 500 | **** (The symbol “****” indicates a value greater than 200) | < 500 | * (The symbol “*” indicates a value in the range of 25 to 90)
O=C(O)CC[C@H]1CN(S(=O)(=O)c2cccc(C(F)(F)F)c2)c2cc(-c3cccnc3-c3ccccc3)ccc2O1 [Compound 4AD, (S)-3-(6-(2-phenylpyridin-3-yl)-4-((3-(trifluoromethyl)-phenyl)sulfonyl)-3,4-dihydro-2H-benzo[b][1,4]oxazin-2-yl)propanoic acid] | > 10000 | – | > 10000 | –
Cc1ncccc1-c1ccc2c(c1)N(S(=O)(=O)c1cccc(C(F)(F)F)c1)C[C@H](CCC(=O)O)O2 [Compound 4AE, (S)-3-(6-(2-methylpyridin-3-yl)-4-((3-(trifluoromethyl)-phenyl)sulfonyl)-3,4-dihydro-2H-benzo[b][1,4]oxazin-2-yl)propanoic acid] | < 500 | **** (The symbol “****” indicates a value greater than 200) | 500 to 5000 | ** (The symbol “**” indicates a value in the range of greater than 90 to 150)
Cc1ncc(F)cc1-c1ccc2c(c1)N(S(=O)(=O)c1cccc(C(F)(F)F)c1)C[C@H](CCC(=O)O)O2 [Compound 4AF, (S)-3-(6-(5-fluoro-2-methylpyridin-3-yl)-4-((3-(trifluoromethyl)phenyl)sulfonyl)-3,4-dihydro-2H-benzo[b][1,4]oxazin-2-yl)propanoic acid] | < 500 | **** (The symbol “****” indicates a value greater than 200) | < 500 | ** (The symbol “**” indicates a value in the range of greater than 90 to 150)
Cc1c(F)cccc1-c1ccc2c(c1)N(S(=O)(=O)c1cccc(C(F)(F)F)c1)C[C@H](CCC(=O)O)O2 [Compound 4AG, (S)-3-(6-(3-fluoro-2-methylphenyl)-4-((3-(trifluoromethyl)phenyl)sulfonyl)-3,4-dihydro-2H-benzo[b][1,4]oxazin-2-yl)propanoic acid] | < 500 | **** (The symbol “****” indicates a value greater than 200) | < 500 | ** (The symbol “**” indicates a value in the range of greater than 90 to 150)
CCc1cccc(-c2ccc3c(c2)N(S(=O)(=O)c2cccc(C(F)(F)F)c2)C[C@H](CCC(=O)O)O3)c1 [Compound 4AH, (S)-3-(6-(3-ethylphenyl)-4-((3-(trifluoromethyl)phenyl)-sulfonyl)-3,4-dihydro-2H-benzo[b][1,4]oxazin-2-yl)propanoic acid] | < 500 | **** (The symbol “****” indicates a value greater than 200) | < 500 | ** (The symbol “**” indicates a value in the range of greater than 90 to 150)
Cc1c(F)cc(F)cc1-c1ccc2c(c1)N(S(=O)(=O)c1cccc(C(F)(F)F)c1)C[C@H](CCC(=O)O)O2 [Compound 4AJ, (S)-3-(6-(3,5-difluoro-2-methylphenyl)-4-((3-(trifluoromethyl)phenyl)-sulfonyl)-3,4-dihydro-2H-benzo[b][1,4]oxazin-2-yl)propanoic acid] | < 500 | **** (The symbol “****” indicates a value greater than 200) | < 500 | ** (The symbol “**” indicates a value in the range of greater than 90 to 150)
